# Experimental data reported in patent publication US7262185B2, “Benzazepine derivative, process for producing the same, and use” (Takeda Chemical Industries Ltd., priority 2001, dated 2007).
# Legend:
# [1] = molecular target: T1, human CCR5 chemokine receptor (Homo sapiens, UniProt P51681); test: Inhibition of [125I]-RANTES binding to CCR5/CHO cells (CCR5 antagonistic activity); conditions: test compound 1 μM, [125I]-RANTES as ligand, room temperature; for inhibition at 1 µM: 40 min, read-out: Binding Inhibitory Ratio (%); for Binding Inhibitory Ratio (%): 40 minutes
# T1 construct: expressed in transfected cells
# T1 sequence (P51681 whole entry): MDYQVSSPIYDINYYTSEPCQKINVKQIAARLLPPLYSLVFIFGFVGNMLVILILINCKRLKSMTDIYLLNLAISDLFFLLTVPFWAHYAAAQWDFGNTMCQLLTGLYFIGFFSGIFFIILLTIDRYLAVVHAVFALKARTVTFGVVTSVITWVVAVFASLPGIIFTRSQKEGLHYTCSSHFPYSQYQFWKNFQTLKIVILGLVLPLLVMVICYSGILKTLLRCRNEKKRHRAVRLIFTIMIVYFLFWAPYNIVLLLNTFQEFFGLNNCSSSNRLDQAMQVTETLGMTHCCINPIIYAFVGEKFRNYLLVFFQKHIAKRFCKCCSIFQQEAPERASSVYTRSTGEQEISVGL
# Method: Cloning of CCR5 gene from human spleen cDNA was conducted using the PCR method. Using spleen cDNA (0.5 ng) (TOYOBO CO., LTD, QUICK-Clone cDNA) as a template, PCR was performed in a DNA Thermal Cycler 480 (manufactured by Perkin Elmer) (reaction conditions: 30 cycles of 95° C. for 1 minute, 60° C. for 1 minute, and 75° C. for 5 minutes) by adding primer sets, SEQ. ID NO: 1 (sequence length: 34; sequence type: nucleic acid; chain number: single strand; topology: linear; kind of sequence: other nucleic acid synthetic. DNA) described in Experimental. Example (1) of WO 99/32100, and SEQ ID NO: 2 (sequence length: 34; sequence type: nucleic acid; chain number: single strand; topology: linear; kind of sequence: other nucleic acid synthetic. DNA) described in Experimental. Example (1) of WO 99/32100, (25 pmol, respectively), which were prepared referring to the nucleotide sequence of CCR5 gene, as reported by Samson et al. (Biochemistry 35 (11), 3362-3367 (1996)) and by using TaKaRa. EX Taq (Takara Shuzo). The resultant. PCR product was subjected to agarose gel electrophoresis to collect an approximately 1.0 kb. DNA fragment, which was subjected to an Original TA Cloning Kit (Funakoshi Co., Ltd.) to carry out cloning of CCR5 gene.
# The plasmid obtained above was digested with restriction enzymes XbaI (Takara Shuzo Co., Ltd.) and BamHI (Takara Shuzo Co., Ltd.), and then subjected to agarose gel electrophoresis to collect DNA fragment of about 1.0 kb. The DNA fragment and plasmid pcDNA 3.1 (Funakoshi. Co., Ltd.) for expression in animal cells, which was previously digested with XbaI and BamHI, were mixed and ligated by DNA Ligation Kit Ver. 2 (Takara Shuzo Co., Ltd.). The resulting plasmid was subjected to transformation into. E. coli JM109 competent cells (Takara Shuzo Co., Ltd.) to obtain plasmid pCKR5.
# CHO-K1 cells were cultured in a 750-ml tissue culture flask (Becton, Dickinson and Company.) using. Ham F12 medium (NIHON PHARMACEUTICAL CO., LTD.) containing 10% fetal bovine serum (Lifetech Oriental) and were collected using 0.5 g/L trypsin-0.2 g/L EDTA (Lifetech Oriental). The cells were washed with PBS (Lifetech Oriental), centrifuged (1000 rpm, 5 minutes), and suspended in PBS. The DNA was introduced into the cells using a Gene Pulser (Bio-Rad Laboratories, Inc.) under the following conditions. Namely, 8×10^6 cells and 10 μg of plasmid pCKR5 for expression of human CCR5 were placed in a cuvette having a 0.4-cm gap, and electroporation was carried out with a voltage 0.25 kV and 960 μF of capacitance. Then, the cells were transferred into Ham's. F12 medium containing 10% fetal bovine serum, and incubated for 24 hours. The cells were collected, centrifuged, and suspended in Ham' F12 medium containing 10% fetal bovine serum and Geneticin (Lifetech Oriental) at a concentration of 500 μg/ml. The suspension of cells was diluted to a concentration of 10^4 cells/ml, and was inoculated onto 96-well plate (Becton Dickinson), to obtain Geneticin-resistant strain.
# Then, resulting. Geneticin-resistant strain were cultured on 96-well plate (Becton Dickinson), and CCR5-expressing cells were selected from the resistant cells. Namely, in an assay buffer, (Ham's F12 medium containing 0.5% BSA, and 20 mM HEPES (Wako Pure Chemical Ind., pH 7.2)) to which was added […][125I]-RANTES (Amersham) as a ligand, the cells were subjected to a binding reaction at room temperature for 40 minutes. Wells containing the cells were washed with ice-cooled PBS, and 50 μl/well of 1M NaOH was added and stirred. The cells to which the ligand was bound specifically, i.e., CCR5/CHO cells, were selected by measurement of radioactivity using a […].
# The CCR5/CHO cells were inoculated onto 96-well microplate at a concentration of 5×10^4 cells/well, and were cultured for 24 hours. After removal of the medium by aspiration, to each well was added an assay buffer containing a test compound (1 μM), and [125I]/RANTES (Amersham) used as a ligand at a concentration of […]. […]
Structure (SMILES),inhibition at 1 µM [1],also measured
"CCCCOCCOc1ccc(-c2ccc3c(c2)C=C(C(=O)Nc2ccc([S+]([O-])Cc4cccnc4C)nc2)CCN3CC(C)C)cc1 (stereo not drawn) [Compound 272, 7-[4-(2-butoxyethoxy)phenyl]-1-isobutyl-N-[6-[[(2-methyl-3-pyridinyl)methyl]sulfinyl]-3-pyridinyl]-2,3-dihydro-1-benzazepine-4-carboxamide]",98%,–
"CCCCOCCOc1ccc(-c2ccc3c(c2)C=C(C(=O)Nc2ccc([S+]([O-])Cc4cncn4CCC)cc2)CCN3CCC)cc1 (single isomer, unassigned; (-)) [Compound 378, (−)-7-[4-(2-butoxyethoxy)phenyl]-1-propyl-N-[4-[[[1-propylimidazol-5-yl]methyl]sulfinyl]phenyl]-2,3-dihydro-1-benzazepine-4-carboxamide]",–,Binding Inhibitory Ratio (%) [1]: 87%
"CCCCOCCOc1ccc(-c2ccc3c(c2)C=C(C(=O)Nc2ccc(SCc4nncn4CCC)nc2)CCN3CC(C)C)cc1 [Compound 53, 7-[4-(2-butoxyethoxy)phenyl]-1-isobutyl-N-[2-(4-propyl-4H-1,2,4-triazol-3-yl)methylthiopyridin-5-yl]-2,3-dihydro-1H-1-benzazepine-4-carboxamide]",98%,–
"CCCCOCCOc1ccc(-c2ccc3c(c2)C=C(C(=O)Nc2ccc([S+]([O-])Cc4cncn4CCOC(C)=O)cc2)CCN3CC(C)C)cc1 (stereo not drawn) [Compound 427, [5-[[[4-[[[7-[4-(2-butoxyethoxy)phenyl]-1-isobutyl-2,3-dihydro-1H-1-benzazepin-4-yl]carbonyl]amino]phenyl]sulfinyl]methyl]-1H-imidazol-1-yl]ethyl acetate]",100%,–
"CCCCOCCOc1ccc(-c2ccc3c(c2)C=C(C(=O)Nc2ccc(SCc4nccn4C)c(C)c2)CCN3CC(C)C)cc1 [Compound 355, 7-[4-(2-butoxyethoxy)phenyl]-1-isobutyl-N-[3-methyl-4-[[(1-methylimidazol-2-yl)methyl]sulfanyl]phenyl]-2,3-dihydro-1-benzazepine-4-carboxamide]",99%,–
"CCCCOCCOc1ccc(-c2ccc3c(c2)C=C(C(=O)Nc2ccc4nc([S+]([O-])Cc5cncn5CCC)[nH]c4c2)CCN3CC(C)C)cc1 (stereo not drawn) [Compound 313, 7-[4-(2-butoxyethoxy)phenyl]-1-isobutyl-N-[2-[[(1-propylimidazol-5-yl)methyl]sulfinyl]benzimidazol-5-yl]-2,3-dihydro-1-benzazepine-4-carboxamide]",95%,–
"CCCCOCCOc1ccc(-c2ccc3c(c2)C=C(C(=O)Nc2ccc(SCc4nccn4C4CC4)cc2)CCN3CC(C)C)cc1 [Compound 366, 7-[4-(2-butoxyethoxy)phenyl]-N-[4-[[[1-cyclopropylimidazol-2-yl]methyl]sulfanyl]phenyl]-1-isobutyl-2,3-dihydro-1-benzazepine-4-carboxamide]",96%,–
CCCCOCCOc1ccc(-c2ccc3c(c2)C=C(C(=O)Nc2ccc([S+]([O-])Cc4nccn4CCCO)cc2)CCN3CC(C)C)cc1 (stereo not drawn) [Compound 437],–,Binding Inhibitory Ratio (%) [1]: 100%
"CCCCOCCOc1ccc(-c2ccc3c(c2)C=C(C(=O)Nc2ccc(C(O)c4cccc[n+]4[O-])c(C(F)(F)F)c2)CCN3CCC)cc1 (stereo not drawn) [Compound 13, 7-[4-(2-butoxyethoxy)phenyl]-N-[4-[hydroxy(1-oxidopyridin-2-yl)methyl]-3-trifluoromethylphenyl]-1-propyl-2,3-dihydro-1H-1-benzazepine-4-carboxamide]",100%,–
"CCCCOCCOc1ccc(-c2ccc3c(c2)C=C(C(=O)Nc2ccc([S+]([O-])Cc4cccnc4)cc2)CCN3CC(C)C)cc1 (stereo not drawn) [Compound 210, 7-[4-(2-butoxyethoxy)phenyl]-1-isobutyl-N-[4-[(3-pyridinylmethyl)sulfinyl]phenyl]-2,3-dihydro-1-benzazepine-4-carboxamide]",97%,–
"CCCCOCCOc1ccc(-c2ccc3c(c2)C=C(C(=O)Nc2ccc(CCc4nncn4CCC)cc2)CCN3CC(C)C)cc1 [Compound 152, 7-[4-(2-butoxyethoxy)phenyl]-1-isobutyl-N-[4-[2-(4-propyl-4H-1,2,4-triazol-3-yl)ethyl]phenyl]-2,3-dihydro-1H-benzazepine-4-carboxamide]",97%,–
"CCCCOCCOc1ccc(-c2ccc3c(c2)C=C(C(=O)Nc2ccc([S+]([O-])Cc4nncn4CCC)cc2)CCN3CCC)cc1 (stereo not drawn) [Compound 141, 7-[4-(2-butoxyethoxy)phenyl]-1-propyl-N-[4-(4-propyl-4H-1,2,4-triazol-3-ylmethylsulfinyl)phenyl]-2,3-dihydro-1H-benzazepine-4-carboxamide]",100%,–
"CCCCOCCOc1ccc(-c2ccc3c(c2)C=C(C(=O)Nc2ccc([S+]([O-])CC4=NNCN4CCC)nn2)CCN3CC(C)C)cc1 (stereo not drawn) [Compound 68, 7-[4-(2-butoxyethoxy)phenyl]-1-isobutyl-N-[6-[(4-propyl-1H-1,2,4-triazol-3-yl)methylsulfinyl]pyridazin-3-yl]-2,3-dihydro-1H-1-benzazepine-4-carboxamide]",97%,–
"CCCCOCCOc1ccc(-c2ccc3c(c2)C=C(C(=O)Nc2ccc([S+]([O-])Cc4cncn4C4CC4)cc2)CCN3CC(C)C)cc1 (stereo not drawn) [Compound 74, 7-[4-(2-butoxyethoxy)phenyl]-1-isobutyl-N-[4-[(3-cyclopropylimidazol-4-yl)methylsulfinyl]phenyl]-2,3-dihydro-1H-1-benzazepine-4-carboxamide]",97%,–
"CCCCOCCOc1ccc(-c2ccc3c(c2)C=C(C(=O)Nc2ccc(C(O)c4ccc(Cl)c[n+]4[O-])cc2)CCN3CC(C)C)cc1 (stereo not drawn) [Compound 110, 7-[4-(2-butoxyethoxy)phenyl]-N-[4-[hydroxy(5-chloro-1-oxidopyridin-2-yl)methyl]phenyl]-1-isobutyl-2,3-dihydro-1H-1-benzazepine-4-carboxamide]",–,melting point: 137 to 139 °C
"CCCCOCCOc1ccc(-c2ccc3c(c2)C=C(C(=O)Nc2ccc([S+]([O-])Cc4nncn4C)cc2)CCN3CC(C)C)cc1 (stereo not drawn) [Compound 131, 7-[4-(2-butoxyethoxy)phenyl]-N-[4-(4-methyl-4H-1,2,4-triazol-3-ylmethylsulfinyl)phenyl]-1-isobutyl-2,3-dihydro-1H-1-benzazepine-4-carboxamide]",–,melting point: 103 to 105 °C
"CCCCOCCOc1ccc(-c2ccc3c(c2)C=C(C(=O)Nc2ccc(C(O)c4c(OCCC)ccc[n+]4[O-])cc2)CCN3C(=O)C(F)(F)F)cc1 (stereo not drawn) [Compound 112, 7-[4-(2-butoxyethoxy)phenyl]-N-[4-[hydroxy(1-oxido-3-propoxypyridin-2-yl)methyl]phenyl]-1-trifluoroacetyl-2,3-dihydro-1H-1-benzazepine-4-carboxamide]",–,melting point: 144 to 146 °C
"CCCCOCCOc1ccc(-c2ccc3c(c2)C=C(C(=O)Nc2ccc([C@H](O)c4cccc[n+]4[O-])cc2)CCN3Cc2ccnn2C)cc1 [Compound 89, 7-[4-(2-butoxyethoxy)phenyl]-N-[4-[(S)-hydroxy(1-oxidopyridin-2-yl)methyl]phenyl]-1-(1-methylpyrazol-5-ylmethyl)-2,3-dihydro-1H-1-benzazepine-4-carboxamide]",–,melting point: 109 to 111 °C
